For data set [1], the target named is T1, butirrylcholinesterase from equine serum (BuChE) (Equus caballus, UniProt P81908).
T1 construct: butirrylcholinesterase from equine serum (BuChE); purchased Sigma-Aldrich (Milano, Italy); host or cells: equine serum
The data set is described as follows: biochemical. The conditions noted are these: for inhibition type determined for BuChE: from Km and Vmax at different inhibitor concentrations; for IC50: mean ± SD, three determinations, pH 7.4, 500 μM butirrylthiocholine. Here is the method:
(§1) AChE or BuChE activity was assayed by the Ellman method as previously reported, using acetylthiocholine or butirrylthiocholine as a substrate, respectively. […] The reaction was started by the addition of 100 mU/mL AChE or BuChE, and the initial rate of the reaction was derived from the linear portion of the kinetics. […] Linear curve fits were obtained with the least-squares method, and the significance of the correlation was estimated from the squared correlation coefficient r^2.
(§2) The determination of the kinetic parameters Km and Vmax for both cholinesterase and monoamine oxidase activities were determined by measuring the initial velocity (v0) of substrate consumption/product formed at different substrate concentrations, as reported above. […] The Ki values obtained at different inhibitor concentrations were averaged to obtain a unique value of apparent Ki for each compound. Kinetic parameters and their corresponding standard errors were evaluated using a simple weighting method (Student’s t test).

Data set [2] addresses T2, Acetylcholinesterase from Electrophorus electricus (AChE) (Electrophorus electricus, UniProt O42275).
T2 construct: purchased Sigma-Aldrich (Milano, Italy)
Description: biochemical. The conditions noted are these: for mechanism of inhibition on AChE: from Km and Vmax at different inhibitor concentrations; for IC50: mean ± SD, three determinations, pH 7.4, 500 μM acetylthiocholine. The method, then:
as §1, §2

The next data set addresses T3, Aβ 1–40 peptide (Homo sapiens, UniProt P05067).
T3 construct: Human β-amyloid peptide (1–40, cat. ab120479); purchased Abcam (Cambridge, UK) ab120479
Description: Aβ 1–40 self-aggregation inhibition assay (thioflavine T). To be noted: for IC50: 96 µM peptide, 37 °C, 24 h, mean ± SD, three determinations, read-out: IC50 on Aβ 1–40 fibril formation; for interference with fibril formation: up to 500 µM. It is filed as biochemical. Here is the method: The percent inhibition due to the presence of the self-aggregation inhibition was calculated from the decrease in the fluorescence signal after the subtraction of the background fluorescence of a thioflavin T solution obtained in the same way.

In another data set the target is mouse BACE-1 (Mus musculus, UniProt P56818). The data set is described as follows: BACE-1 activity, fluorescent peptide substrate. It is filed as biochemical. To be noted: mean ± SD, four determinations; pH 4.5. Here is the method: BACE-1 activity was assayed as previously reported. Briefly, the reaction mixtures contained 2.1 ng/µL mouse BACE-1 in 50 mM ammonium acetate buffer, pH 4.5 supplemented with 1 mM triton X-100, and the appropriate amount of the hybrid derivatives. The mixture was incubated for 10 min at room temperature and started by adding 100 nM final concentration of the fluorescent peptide substrate. The increase in fluorescence was followed kinetically using excitation and emission wavelengths of 320 and 420 nm, respectively. The rate was derived from the linear portion of the kinetics, usually in the first 30 min of the reaction. The known BACE-1 inhibitors I and IV were used as positive controls.
mouse BACE-1, sequence (P56818 46-501): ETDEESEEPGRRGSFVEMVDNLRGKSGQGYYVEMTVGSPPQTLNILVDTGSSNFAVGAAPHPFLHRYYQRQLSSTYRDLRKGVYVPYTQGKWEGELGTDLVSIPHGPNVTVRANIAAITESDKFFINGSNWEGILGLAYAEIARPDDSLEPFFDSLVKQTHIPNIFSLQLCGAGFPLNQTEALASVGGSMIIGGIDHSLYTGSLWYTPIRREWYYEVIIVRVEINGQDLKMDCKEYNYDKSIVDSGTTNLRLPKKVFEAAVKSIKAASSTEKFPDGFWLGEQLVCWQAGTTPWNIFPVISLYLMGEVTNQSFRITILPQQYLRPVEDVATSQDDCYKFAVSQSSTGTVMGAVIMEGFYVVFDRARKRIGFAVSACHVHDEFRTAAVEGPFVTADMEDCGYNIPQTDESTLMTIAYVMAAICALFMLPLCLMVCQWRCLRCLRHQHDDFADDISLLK

Data set [3] concerns SH-SY5Y cells. The data set is described as follows: Cell viability by MTT assay. The data set is classed as cell-based, Human. The method, then: Human neuroblastoma SH-SY5Y cell line is the most widely used model to reproduce in vitro AD [37]. This cell line was acquired from the American Type Culture Collection (20099 Sesto San Giovanni, Milan, Italy) and maintained in culture in Dulbecco Modified’s Eagle’s Medium (DMEM) (supplemented with 100 U/mL penicillin, 100 µg/mL streptomycin, and 10% thermally inactivated bovine fetal serum). The cells were appropriately differentiated: a treatment with trans retinoid acid 10 µM for 5 days was chosen (Sigma Aldrich, 20151 Milan, Italy). […] At the end of the treatment, all appropriate tests were performed.
The use of 3-(4,5-dimethyl[…])-2,5-diphenyltetrazole (MTT) bromide allowed the determination of cell viability for the presence of active enzymes within mitochondria in living cells. Mitochondrial […] can reduce MTT by producing colorimetric modification whose spectrophotometric measurement provides valuable information on cell viability. An amount of 8 × 10^3 cells/well was plated onto 96-well plates. After 24 h, the culture medium was replaced with fresh phenol-free medium containing a solution of MTT (0.5 mg/mL), and after 4 h of incubation, 100 μL 10% SDS was added to each well to solubilize the formazan crystals. The optical density was measured at wavelengths of 540 and 690 nm using a spectrophotometric reader (X MARK Spectrophotometer Microplate Bio-Rad).
Aβ 25 μM peptide was incubated alone or in the presence the specific amount of each hybrid compound [28] for 24 h at room temperature prior to the cell treatment. […]
On the technique in general: Tetrazolium dyes change colour on reduction, which living cells bring about.

For data set [4], the system named is SH-SY5Y cells. Description: Malondialdehyde (MDA), TBA reaction. The data set is classed as cell-based, Human. To be noted: Aβ peptide. Here is the method: Lipid peroxidation was evaluated by measuring the reaction products of MDA with thiobarbituric acid (TBA), which forms a colorimetric product proportional to the MDA present. The cells were placed in 10 cm diameter cell culture and the following day were treated as indicated. At the end of the treatment, the cells were scraped, and then the suspension was subjected to freezing/thawing cycles. Subsequently, 36 mM TBA dissolved in glacial acetic acid was added and the mixture heated for 60 min to 100 °C. The reaction was interrupted by placing the vials on ice for 10 min, and a spectrophotometric reading was carried out at 532 nm.

Data set [5] deals with SH-SY5Y cells. The data set is described as follows: Intracellular ROS (H2DCF-DA, cytofluorimetric analysis). The data set is classed as cell-based, Human. The conditions noted are these: Aβ peptide. The method, then:
Human neuroblastoma SH-SY5Y cell line is the most widely used model to reproduce in vitro AD [37]. This cell line was acquired from the American Type Culture Collection (20099 Sesto San Giovanni, Milan, Italy) and maintained in culture in Dulbecco Modified’s Eagle’s Medium (DMEM) (supplemented with 100 U/mL penicillin, 100 µg/mL streptomycin, and 10% thermally inactivated bovine fetal serum). The cells were appropriately differentiated: a treatment with trans retinoid acid 10 µM for 5 days was chosen (Sigma Aldrich, 20151 Milan, Italy). The medium was changed every 2–3 days, and when the cell line reached about 50% confluence, it was supplemented with the mixtures (MIX 0, 1, 2, 3, 4, 5, 6, 7) for a further 24 h. At the end of the treatment, all appropriate tests were performed.
The probe used to measure intracellular reactive oxygen species (ROS) is the molecule H2DCF-DA [39]. In fact, after its simple diffusion in cells, H2DCF-DA is cleaved by cellular esterases, which are responsible for the loss of an acetate group, transforming it into H2DCF. This compound can no longer leave the cell and binds the ROS to the highly fluorescent compound DCF. In this way, the quantification of DCF provides the content of cellular ROS. […] The fluorescence was evaluated by cytometric analysis (FACS Accury, Becton Dickinson, Milan, Italy). […]

The test system of data set [6] is cleaved caspase 3 in SH-SY5Y cells. The data set is described as follows: Cleaved caspase-3 expression, Western blotting. It is filed as cell-based, Human. To be noted: mixtures 24 h; Aβ peptide vs untreated cells. Here is the method:
The total lysates of SH-SY5Y cells were obtained from 6-multiwells. Lysates were taken after the cells were exposed to a preheated lysis buffer (80 °C) containing 50 mM of Tris-HCl (pH 6.8), 2% of SDS, and a protease inhibitor mixture and immediately boiled for 2 min. The protein concentration was determined using a DCA protein assay. After the addition of 0.05% bromophenol blue, 10% glycerol, and 2% β-mercaptoethanol, the samples were boiled again and loaded onto 12% SDS-polyacrylamide gels. Following electrophoresis, the polypeptides were transferred to nitrocellulose filters and blocked with TTBS/milk (TBS 1%, Tween 20, and nonfat dry milk 5%), and then the antibodies were used to reveal the respective antigens. Primary antibodies were incubated overnight at 4 °C, and, after washing, the filters were exposed to horseradish peroxidase-conjugated secondary antibody for 1 h at room temperature. The blots were developed using the chemiluminescence procedure. Experiments of immunoblot analysis were carried out in two ways: (a) electrophoresis of proteins obtained from cell extracts, as described; and (b) electrophoresis of proteins obtained by the formation of mixtures in the test tubes (in the absence of cells). […]

T1 sequence (P81908 whole entry): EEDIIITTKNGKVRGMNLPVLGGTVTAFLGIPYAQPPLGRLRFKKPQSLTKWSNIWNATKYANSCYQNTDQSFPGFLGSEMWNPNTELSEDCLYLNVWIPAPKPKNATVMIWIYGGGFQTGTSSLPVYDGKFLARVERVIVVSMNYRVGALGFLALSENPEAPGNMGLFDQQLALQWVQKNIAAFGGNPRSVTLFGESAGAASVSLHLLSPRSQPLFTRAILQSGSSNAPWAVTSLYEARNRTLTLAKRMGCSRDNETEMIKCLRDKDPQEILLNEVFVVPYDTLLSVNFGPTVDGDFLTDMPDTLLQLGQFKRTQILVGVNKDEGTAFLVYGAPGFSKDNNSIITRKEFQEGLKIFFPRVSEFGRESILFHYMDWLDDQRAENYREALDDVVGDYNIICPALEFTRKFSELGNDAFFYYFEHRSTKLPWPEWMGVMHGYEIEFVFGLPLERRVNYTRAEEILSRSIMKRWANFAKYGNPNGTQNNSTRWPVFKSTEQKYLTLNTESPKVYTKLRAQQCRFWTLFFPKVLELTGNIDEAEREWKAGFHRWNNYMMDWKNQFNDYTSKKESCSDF
T2 sequence (O42275 24-633): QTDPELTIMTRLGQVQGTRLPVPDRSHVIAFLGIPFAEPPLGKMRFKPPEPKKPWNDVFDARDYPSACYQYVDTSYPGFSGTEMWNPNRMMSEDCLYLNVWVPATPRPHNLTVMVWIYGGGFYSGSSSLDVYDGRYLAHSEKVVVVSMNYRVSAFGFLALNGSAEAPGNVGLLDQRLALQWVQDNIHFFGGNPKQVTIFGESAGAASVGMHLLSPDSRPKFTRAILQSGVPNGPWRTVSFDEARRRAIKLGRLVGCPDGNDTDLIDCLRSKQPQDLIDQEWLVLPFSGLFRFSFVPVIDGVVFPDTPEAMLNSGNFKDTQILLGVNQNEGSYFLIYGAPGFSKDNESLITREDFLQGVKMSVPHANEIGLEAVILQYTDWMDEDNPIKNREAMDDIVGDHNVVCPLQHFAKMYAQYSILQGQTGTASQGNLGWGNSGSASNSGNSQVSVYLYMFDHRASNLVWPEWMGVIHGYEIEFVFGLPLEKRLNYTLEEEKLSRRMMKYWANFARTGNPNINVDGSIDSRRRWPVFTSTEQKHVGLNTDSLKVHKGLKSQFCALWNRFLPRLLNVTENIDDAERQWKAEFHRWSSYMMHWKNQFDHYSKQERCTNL
T3 sequence (P05067 672-711): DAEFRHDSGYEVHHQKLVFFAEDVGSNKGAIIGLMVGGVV

On to `O=C(OCCc1ccc(O)c(O)c1)C1CCN(Cc2ccccc2)CC1` [HT1], for which, in data set [1], the “inhibition type determined for BuChE” value is recorded as “mixed”. In addition, the IC50 in data set [1] is 20.3 ± 2.4 µM; in data set [2], 6.5 ± 0.8 µM; at Aβ 1–40 peptide, 375 ± 143 µM; at mouse BACE-1, 11.3 ± 1.2 µM. For the same compound, the “mechanism of inhibition on AChE” value in data set [2] was “uncompetitive”.
As for `CC(=O)Oc1ccc(CCOC(=O)C2CCN(Cc3ccccc3)CC2)cc1OC(C)=O` [HT1a], the “inhibition type determined for BuChE” value in data set [1] is on record as “mixed”. Further, the IC50 in data set [1] is 4.2 ± 0.4 µM; in data set [2], 4.3 ± 0.7 µM; on Aβ 1–40 peptide it was 106 ± 11.1 µM; on mouse BACE-1 it was 16.9 ± 0.1 µM. Further, the “mechanism of inhibition on AChE” value in data set [2] was “mixed”.
For `O=C(OCCc1cc(O)c(O)cc1[N+](=O)[O-])C1CCN(Cc2ccccc2)CC1` [HT2], the “inhibition type determined for BuChE” value in data set [1] is on record as “mixed”. Moreover, the IC50 in data set [1] came out at 31.8 ± 5.7 µM; in data set [2], 3.8 ± 0.3 µM; on Aβ 1–40 peptide, 418 ± 41.1 µM; against mouse BACE-1 it was 128 ± 42 µM. Moreover, the “mechanism of inhibition on AChE” value in data set [2] is listed as “noncompetitive”.
Regarding `COc1cc(CCOC(=O)C2CCN(Cc3ccccc3)CC2)ccc1O` [HT3], in data set [1], the “inhibition type determined for BuChE” value is “mixed” and half-maximal inhibition (IC50) required 7.2 ± 0.9 µM. Further, in data set [2], the “mechanism of inhibition on AChE” value was “uncompetitive” and the midpoint of inhibition, the IC50, lay at 4 ± 0.4 µM. Further, at Aβ 1–40 peptide, the “interference with fibril formation” value is reported as “did not interfere with fibril formation”. The compound further showed a half-maximal inhibitory concentration (IC50) against mouse BACE-1 of 76.8 ± 3 µM.
For the compound `COc1cc(CCOC(=O)C2CCN(Cc3ccccc3)CC2)ccc1OC(C)=O` [HT3a], in data set [1], the “inhibition type determined for BuChE” value was “noncompetitive” and the IC50 worked out at 4.3 ± 0.9 µM. Besides, in data set [2], the “mechanism of inhibition on AChE” value is “uncompetitive” and inhibition was half-maximal at 2.6 ± 0.2 µM (IC50). For the same compound, on Aβ 1–40 peptide, the “interference with fibril formation” value is “did not interfere with fibril formation”. The compound also registered a concentration for half-maximal inhibition (IC50) at mouse BACE-1 of 19.7 ± 0.7 µM.
For `O=C(OCCc1ccc(O)cc1)C1CCN(Cc2ccccc2)CC1` [HT4], in data set [1], the “inhibition type determined for BuChE” value is “noncompetitive” and inhibition was half-maximal at 22.9 ± 7.1 µM (IC50). Moreover, in data set [2], the “mechanism of inhibition on AChE” value is recorded as “uncompetitive” and the IC50 came to 4.9 ± 0.5 µM. Further, the “interference with fibril formation” value on Aβ 1–40 peptide is “did not interfere with fibril formation”. At mouse BACE-1, this compound showed an IC50 of 52.2 ± 2.1 µM.
On to `CC(=O)Oc1ccc(CCOC(=O)C2CCN(Cc3ccccc3)CC2)cc1` [HT4a], for which, in data set [1], the “inhibition type determined for BuChE” value is on record as “mixed” and it took 4.1 ± 0.5 µM to reach half-maximal inhibition (IC50). Moreover, in data set [2], the “mechanism of inhibition on AChE” value is “uncompetitive” and half-maximal inhibition (IC50) required 2.9 ± 0.2 µM. For the same compound, the “interference with fibril formation” value on Aβ 1–40 peptide is recorded as “did not interfere with fibril formation”. Also, it took 115 ± 5.1 µM to reach half-maximal inhibition against mouse BACE-1 (IC50).
In the case of “Aβ peptide: Human β-amyloid peptide (1–40, cat. ab120479) from Abcam”, the “reduction in cell vitality” value with SH-SY5Y cells [3] (48 and 72 h, at the concentrations considered (0.1–100 μM)) is “more than 20%”. For the same compound, the cell viability result is “ineffective” in the data set on SH-SY5Y cells [3] (Aβ peptide 0.1 μM); “gradual and increasing reduction in cell viability” with SH-SY5Y cells [3] (Aβ peptide 1, 10 and 100 μM). In addition, the malondialdehyde accumulation result in the data set with SH-SY5Y cells [4] (48 and 72 h) is on record as “increasing accumulation of malondialdehyde”; with SH-SY5Y cells [4] (after 24 h) it was “absent”. In addition, the “ROS in the cells” value with SH-SY5Y cells [5] (after 48 and 72 h) is on record as “no longer detectable”; with SH-SY5Y cells [5] (after 24 h), “significant increase in ROS”. In data set [6], the “expression of the cleaved form of caspase 3” value was “increased expression of caspase 3”.

What is called IC50 is the concentration that gives 50% inhibition.

These data come from publication PMC10488223 (International Journal of Molecular Sciences, 2023).
